Earlier results on five compounds are cited in patent US9901554B2, “Biodegradable compositions suitable for controlled release” (INGELL TECHNOLOGIES HOLDING B.V., priority 2011, dated 2018).

Like-named read-outs stand apart in the source and are kept apart here.

Regarding `Cc1ccc(-c2cc(C(F)(F)F)nn2-c2ccc(S(N)(=O)=O)cc2)cc1` [celecoxib], the solubility in water result (small molecules and peptide) is given as “below 1 ug/ml”.

As to `CN(CC(O)CO)C(=O)c1c(I)c(NC(=O)C(CO)CO)c(I)c(C(=O)N(C)CC(O)CO)c1I` (centres unmarked) [iobitridol], under “small molecules and peptide”, the solubility in water entry is given as “above 5000 ug/ml”. With `CC1(C)O[C@@H]2C[C@H]3[C@@H]4CCC5=CC(=O)C=C[C@]5(C)[C@@]4(F)[C@@H](O)C[C@]3(C)[C@]2(C(=O)CO)O1` [triamcinolone acetonide], the solubility in water result (small molecules and peptide) is reported as “below 20 ug/ml”. “bovine serum albumin: water soluble model protein (Sigma)”: for the setting “model proteins”, the solubility in water entry was “above 10000 μg/ml”.

Turning to “lysozyme: water soluble model protein of around 16 kDa (Sigma)”, under “model proteins”, the solubility in water result is given as “above 10000 μg/ml”.
